Data from patent US20260262643A1, “HERBICIDAL BENZOXAZINES” (FMC CORPORATION, priority 2022, published 2026).

How the values were obtained:
[1] = tested on: goosegrass; assay: Test A preemergence; format: in vivo, Eleusine indica
Method in brief: (§1)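 Greenhouse pot test, 10 days. Compound (non-phytotoxic solvent, surfactant) sprayed on soil at seeding or on seedlings at one- to two-leaf stage. Visual injury rated 0–100 against untreated plants.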

[2] = tested on: corn; assay: Test A preemergence; format: in vivo, Zea mays
Method in brief: as §1

[3] = tested on: ryegrass, Italian; assay: Test A preemergence; format: in vivo, Lolium multiflorum
Method in brief: as §1

[4] = tested on: foxtail, giant; assay: Test A postemergence; format: in vivo, Setaria faberi
Method in brief: as §1

[5] = tested on: soybean; assay: Test A preemergence; format: in vivo, Glycine max
Method in brief: as §1

[6] = tested on: sedge, umbrella; assay: Test B flooded paddy test; format: in vivo, Cyperus difformis; conditions: 250 g ai/ha, Flood, 13 days, 0 to 100 scale (0 no effect, 100 complete control)
Method in brief: (§2)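 Visual scores from 0 (no effect) to 100 (complete kill) were assigned 13 days after treatment by comparison with controls. Seedlings had been treated at two leaves by adding compound to floodwater standing 3 cm deep, kept at that level in the greenhouse.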

[7] = tested on: blackgrass; assay: Test A preemergence; format: in vivo, Alopecurus myosuroides
Method in brief: as §1

[8] = tested on: rice; assay: Test B flooded paddy test; format: in vivo, Oryza sativa; conditions: 250 g ai/ha, Flood, 13 days, 0 to 100 scale (0 no effect, 100 complete control)
Method in brief: as §2

[9] = tested on: kochia; assay: Test A postemergence; format: in vivo, Bassia scoparia
Method in brief: as §1

[10] = tested on: blackgrass; assay: Test A postemergence; format: in vivo, Alopecurus myosuroides
Method in brief: as §1

[11] = tested on: foxtail, giant; assay: Test A preemergence; format: in vivo, Setaria faberi
Method in brief: as §1

[12] = tested on: goosegrass; assay: Test A postemergence; format: in vivo, Eleusine indica
Method in brief: as §1

[13] = tested on: ragweed; assay: Test A preemergence; format: in vivo, Ambrosia artemisiifolia
Method in brief: as §1

[14] = tested on: pigweed, palmer; assay: Test A postemergence; format: in vivo, Amaranthus palmeri
Method in brief: as §1

[15] = tested on: galium; assay: Test A postemergence; format: in vivo, Galium aparine
Method in brief: as §1

[16] = tested on: ragweed; assay: Test A postemergence; format: in vivo, Ambrosia artemisiifolia
Method in brief: as §1

[17] = tested on: pigweed, palmer; assay: Test A preemergence; format: in vivo, Amaranthus palmeri
Method in brief: as §1

[18] = tested on: corn; assay: Test A postemergence; format: in vivo, Zea mays
Method in brief: as §1

[19] = tested on: kochia; assay: Test A preemergence; format: in vivo, Bassia scoparia
Method in brief: as §1

[20] = tested on: wheat; assay: Test A postemergence; format: in vivo, Triticum aestivum
Method in brief: as §1

[21] = tested on: ducksalad; assay: Test B flooded paddy test; format: in vivo, Heteranthera limosa; conditions: 250 g ai/ha, Flood, 13 days, 0 to 100 scale (0 no effect, 100 complete control)
Method in brief: as §2

[22] = tested on: oat, wild; assay: Test A postemergence; format: in vivo, Avena fatua
Method in brief: as §1

[23] = tested on: wheat; assay: Test A preemergence; format: in vivo, Triticum aestivum
Method in brief: as §1

[24] = tested on: barnyardgrass; assay: Test B flooded paddy test; format: in vivo, Echinochloa crus-galli; conditions: 250 g ai/ha, Flood, 13 days, 0 to 100 scale (0 no effect, 100 complete control)
Method in brief: as §2

[25] = tested on: soybean; assay: Test A postemergence; format: in vivo, Glycine max
Method in brief: as §1

[26] = tested on: ryegrass, Italian; assay: Test A postemergence; format: in vivo, Lolium multiflorum
Method in brief: as §1

[27] = tested on: oat, wild; assay: Test A preemergence; format: in vivo, Avena fatua
Description: Seeds of plant species selected from barnyardgrass (Echinochloa crusgalli), blackgrass (Alopecurus myosuroides), corn (Zea mays), foxtail, giant (giant foxtail, Setaria faberi), goosegrass (Eleusine indica), kochia (Bassia scoparia), oat, wild (wild oat, Avena fatua), pigweed, palmer (palmer amaranth, palmer pigweed, Amaranthus palmeri), Pigweed, Redroot (redroot pigweed, Amaranthus retroflexus), ragweed (common ragweed, Ambrosia artemisiifolia), ryegrass, Italian (italian ryegrass, Lolium multiflorum), soybean (Glycine max), and wheat (Triticum aestivum) were planted into a blend of loam soil and sand and treated preemergence with a directed soil spray using test chemicals formulated in a non-phytotoxic solvent mixture which included a surfactant. At the same time, plants selected from these crops and weed species and also galium (catchweed bedstraw, Galium aparine) and horseweed (Erigeron canadensis) were planted in pots containing the same blend of loam soil and sand and treated with postemergence applications of test chemicals formulated in the same manner. Plants ranged in height from 2 to 10 cm and were in the one- to two-leaf stage for the postemergence treatment. Treated plants and untreated controls were maintained in a greenhouse for 10 days, after which time all treated plants were compared to untreated controls and visually evaluated for injury. Plant response ratings, summarized in Table A, are based on a 0 to 100 scale where 0 is no effect and 100 is complete control. A dash (-) response means no test result.

[28] = 125 g ai/ha, visual injury after 10 days, 0 to 100 scale, 0 is no effect, 100 is complete control
[29] = 500 g ai/ha, 0 to 100 scale (0 no effect, 100 complete control), 10 days
[30] = 125 g ai/ha, postemergence, 10 days, visual injury, 0 to 100 scale (0 no effect, 100 complete control)
[31] = 500 g ai/ha, Postemergence, 0 to 100 scale

## Cc1ccc(C(=O)N2CC(C)Oc3c(Cl)cccc32)cc1-n1cncn1 (centres unmarked) [Compound 38]
[1]; [28]
  Plant response rating, Goosegrass: 70
[1]; [29]
  Plant response rating, Goosegrass: 100
[2]; [28]
  Plant response rating, Corn: 20
[2]; [29]
  Plant response rating, Corn: 30
[3]; [28]
  Plant response rating, Ryegrass, Italian: 70
[3]; [29]
  Plant response rating, Ryegrass, Italian: 80
[4]; [30]
  Plant response rating, Foxtail, Giant: 60
[4]; [31]
  Plant response rating, Foxtail, Giant: 90
[5]; [28]
  Plant response rating, Soybean: 0
[5]; [29]
  Plant response rating, Soybean: 30
[6]
  Plant response rating, Sedge, Umbrella: 0
[7]; [28]
  Plant response rating, Blackgrass: 30
[7]; [29]
  Plant response rating, Blackgrass: 70
[8]
  Plant response rating, Rice: 0
[9]; [30]
  Plant response rating, Kochia: 20
[9]; [31]
  Plant response rating, Kochia: 60
[10]; [30]
  Plant response rating, Blackgrass: 0
[10]; [31]
  Plant response rating, Blackgrass: 70
[11]; [28]
  Plant response rating, Foxtail, Giant: 70
[11]; [29]
  Plant response rating, Foxtail, Giant: 100
[12]; [30]
  Plant response rating, Goosegrass: 30
[12]; [31]
  Plant response rating, Goosegrass: 70
[13]; [28]
  Plant response rating, Ragweed: 0
[13]; [29]
  Plant response rating, Ragweed: 0
[14]; [30]
  Plant response rating, Pigweed, Palmer: 30
[14]; [31]
  Plant response rating, Pigweed, Palmer: 50
[15]; [30]
  Plant response rating, Galium: 30
[15]; [31]
  Plant response rating, Galium: 50
[16]; [30]
  Plant response rating, Ragweed: 0
[16]; [31]
  Plant response rating, Ragweed: 0
[17]; [28]
  Plant response rating, Pigweed, Palmer: 10
[17]; [29]
  Plant response rating, Pigweed, Palmer: 70
[18]; [30]
  Plant response rating, Corn: 20
[18]; [31]
  Plant response rating, Corn: 80
[19]; [28]
  Plant response rating, Kochia: 0
[19]; [29]
  Plant response rating, Kochia: 30
[20]; [30]
  Plant response rating, Wheat: 10
[20]; [31]
  Plant response rating, Wheat: 70
[21]
  Plant response rating, Ducksalad: 0
[22]; [30]
  Plant response rating, Oat, Wild: 0
[22]; [31]
  Plant response rating, Oat, Wild: 40
[23]; [28]
  Plant response rating, Wheat: 0
[23]; [29]
  Plant response rating, Wheat: 10
[24]
  Plant response rating, Barnyardgrass: 0
[25]; [31]
  Plant response rating, Soybean: 50
[26]; [30]
  Plant response rating, Ryegrass, Italian: 10
[26]; [31]
  Plant response rating, Ryegrass, Italian: 60
[27]; [28]
  Plant response rating, Oat, Wild: 10
[27]; [29]
  Plant response rating, Oat, Wild: 60

## CCc1cccc2c1OC(C)CN2C(=O)c1cccc(-n2cncn2)c1 (centres unmarked) [Compound 43]
[1]; [28]
  Plant response rating, Goosegrass: 60
[1]; [29]
  Plant response rating, Goosegrass: 90
[2]; [28]
  Plant response rating, Corn: 10
[2]; [29]
  Plant response rating, Corn: 20
[3]; [28]
  Plant response rating, Ryegrass, Italian: 60
[3]; [29]
  Plant response rating, Ryegrass, Italian: 90
[4]; [30]
  Plant response rating, Foxtail, Giant: 10
[4]; [31]
  Plant response rating, Foxtail, Giant: 70
[5]; [29]
  Plant response rating, Soybean: 40
[6]
  Plant response rating, Sedge, Umbrella: 0
[7]; [28]
  Plant response rating, Blackgrass: 10
[7]; [29]
  Plant response rating, Blackgrass: 40
[8]
  Plant response rating, Rice: 0
[9]; [30]
  Plant response rating, Kochia: 10
[9]; [31]
  Plant response rating, Kochia: 30
[10]; [30]
  Plant response rating, Blackgrass: 0
[10]; [31]
  Plant response rating, Blackgrass: 0
[11]; [28]
  Plant response rating, Foxtail, Giant: 60
[11]; [29]
  Plant response rating, Foxtail, Giant: 90
[12]; [30]
  Plant response rating, Goosegrass: 0
[12]; [31]
  Plant response rating, Goosegrass: 40
[13]; [28]
  Plant response rating, Ragweed: 0
[13]; [29]
  Plant response rating, Ragweed: 20
[14]; [30]
  Plant response rating, Pigweed, Palmer: 50
[14]; [31]
  Plant response rating, Pigweed, Palmer: 20
[15]; [30]
  Plant response rating, Galium: 30
[15]; [31]
  Plant response rating, Galium: 60
[16]; [30]
  Plant response rating, Ragweed: 0
[16]; [31]
  Plant response rating, Ragweed: 0
[17]; [28]
  Plant response rating, Pigweed, Palmer: 0
[17]; [29]
  Plant response rating, Pigweed, Palmer: 80
[18]; [30]
  Plant response rating, Corn: 10
[18]; [31]
  Plant response rating, Corn: 30
[19]; [28]
  Plant response rating, Kochia: 0
[19]; [29]
  Plant response rating, Kochia: 0
[20]; [30]
  Plant response rating, Wheat: 10
[20]; [31]
  Plant response rating, Wheat: 30
[21]
  Plant response rating, Ducksalad: 0
[22]; [30]
  Plant response rating, Oat, Wild: 0
[22]; [31]
  Plant response rating, Oat, Wild: 20
[23]; [28]
  Plant response rating, Wheat: 0
[23]; [29]
  Plant response rating, Wheat: 10
[24]
  Plant response rating, Barnyardgrass: 0
[25]; [30]
  Plant response rating, Soybean: 80
[25]; [31]
  Plant response rating, Soybean: 100
[26]; [30]
  Plant response rating, Ryegrass, Italian: 30
[26]; [31]
  Plant response rating, Ryegrass, Italian: 60
[27]; [28]
  Plant response rating, Oat, Wild: 20
[27]; [29]
  Plant response rating, Oat, Wild: 90
